Reference: the C3SDB collision cross section collection

Conditions: instrument: DT, stepped-field

Row | SMILES | collision cross section (N2) ([M+H]+) [Å²] | collision cross section (N2) ([M+Na]+) [Å²]
1 | O=C(O)/C=C(/CC(=O)O)C(=O)O [Cis-Aconitic Acid] | 152.21 | 146.78
2 | Nc1ccn([C@@H]2O[C@H](CO)[C@@H](OP(=O)(O)O)[C@H]2O)c(=O)n1 [Cytidine 3'-monophosphate] | 170.98 | 174.9
3 | Nc1ccnc(=O)[nH]1 [Cytosine] | 121.58 | –
4 | OC1OC[C@@H](O)[C@H](O)[C@H]1O (stereo partly drawn) [D-(+)-Xylose] | – | 132.07
5 | O=C[C@@H](O)[C@H](O)[C@H](O)CO [D-Arabinose] | – | 143.27
6 | O=C[C@H](O)[C@H](O)COP(=O)(O)O [D-Erythrose 4-Phosphate] | – | 153.89
7 | N[C@@H]1C(O)O[C@H](CO)[C@@H](O)[C@@H]1O (stereo partly drawn) [D-Mannosamine] | – | 146.73
8 | O=C(CO)[C@@H](O)[C@H](O)[C@H](O)[C@H](O)CO [D-Sedoheptulose] | – | 150.73
9 | O=C(CO)[C@@H](O)[C@H](O)COP(=O)(O)O [D-Xylulose 5-Phosphate] | – | 151.4
10 | CN(C)C(=O)Nc1ccc(Cl)c(Cl)c1 [Diuron] | 153.32 | 162.7
11 | Cc1cc(O)c2c(c1)C(=O)c1cc(O)cc(O)c1C2=O [Emodin] | 161.3 | –
12 | O=C1C[C@@H](c2ccc(O)c(O)c2)Oc2cc(O)cc(O)c21 [Eriodictyol] | 170.48 | 182.17
13 | OC[C@@H](O)[C@H](O)[C@H](O)[C@@H](O)CO [Galactitol] | – | 145.91
14 | O=c1c(-c2ccc(O)cc2)coc2cc(O)cc(O)c12 [Genistein] | 163.3 | 177.67
15 | O=C(O)[C@H](O)[C@@H](O)[C@H](O)[C@H](O)CO [Gluconic Acid] | 141.89 | 149.77
16 | O=C(O)CNCP(=O)(O)O [Glyphosate] | – | 141.17
17 | NC(N)=NCC(=O)O [Guanidinoacetic Acid] | 126.88 | –
18 | CN(C)c1nc(=O)n(C2CCCCC2)c(=O)n1C [Hexazinone] | 163.17 | 179.49
19 | CC(C)C1(C)N=C(c2ncccc2C(=O)O)NC1=O (centres undefined) [Imazapyr] | 157.81 | 176.07
20 | OC1C(O)C(O)C(O)C(O)C1O (centres undefined) [Inositol] | – | 151.95
21 | O=C(O)CC(C(=O)O)C(O)C(=O)O (centres undefined) [Isocitric Acid] | – | 146.78
22 | COc1cc(-c2oc3cc(O)cc(O)c3c(=O)c2O)ccc1O [Isorhamnetin] | 172.96 | 195.91
23 | N[C@@H](CCCC(=O)O)C(=O)O [L-2-Aminoadipic Acid] | 136.36 | 142.23
24 | NC(=O)C[C@H](N)C(=O)O [L-Asparagine] | 131.54 | 131.94
25 | N[C@@H](CS)C(=O)O [L-Cysteine] | 149.57 | 151.34
26 | CS(=N)(=O)CC[C@H](N)C(=O)O (stereo partly drawn) [L-Methionine sulfoximine] | 139.3 | 143.1
27 | N[C@@H](Cn1ccc(=O)c(O)c1)C(=O)O [L-Mimosine] | 143.47 | –
28 | O=C(CO)[C@@H](O)[C@@H](O)CO [L-Ribulose] | – | 132.81
29 | O=C(O)[C@H](O)[C@@H](O)CO [L-Threonic Acid] | – | 136.93
30 | N[C@H](CO)Cc1cnc[nH]1 [L-histidinol] | 130.9 | 136.57
